From patent publication US8648047B2, “Methods and compositions for inhibition of multi-drug resistance by hyaluronan oligomers” (Tufts University, priority 2002, dated 2014)

Legend:
[1] = system: α-isoform of PI3 kinase in HCT116 cells; test: PI3 kinase α isoform assay (immunoprecipitated); assay type: cell-based, human; settings: same reagents as FIG. 5D
Method: (§3) PI3 kinase assay. For assay of total PI3 kinase, 250 ng of cell lysate protein were used per assay. Assays were performed in a 50 μl reaction mixture containing 0.001% Nonidet P-40, 159 μM ATP, 25 mM MgCl2, 5 mM EGTA, 150 μM ATP, 25 μCi of [γ-^32P] ATP, 125 mM MOPS, pH 7.0, and 0.2 mg/ml sonicated lipids containing phosphatidyl serine, phosphatidyl inositol and phosphatidyl inositol-4,5 bisphosphate in a 1:1:1 (v:v:v) ratio in sonication buffer (25 mM MOPS, pH 7.0, 1 mm EGTA) (Whitman, M. et al (1985) Nature 315, 239-242; Susa, M., et al. (1992) J Biol Chem 267, 22951-22956; Misra, S., et al. (1998) J Biol Chem 273, 26638-26644). The reactions were carried out at 37° C. for 20 min and stopped by addition of 100 μl of CH3OH/1M HCl (1:1). […] The organic layers were combined, dried under nitrogen, and analyzed by thin layer chromatography. ^32P-labeled phosphoinositides were resolved in water:acetic acid:n-propanol (34:1:65) and detected by autoradiography. ^32P incorporation into phosphatidylinositol 3,4,5-phosphate (PIP3) was quantified by liquid scintillation counting of thin layer chromatography spots scraped into and eluted in scintillation fluid.
(§4) For assay of specific PI3 kinase isoforms, whole cell lysates were incubated with antibody against the particular isoform plus protein A-Sepharose. PI3 kinase activity of the enzyme immobilized on beads was then measured as described above.

[2] = system: TA3/St murine mammary carcinoma cells; test: Apoptosis assay in suspension culture; assay type: cell-based, mouse; settings: 24 hours in suspension; 150 μg/ml controls, 50 nM wortmannin
Method: FIG. 3 is a bar graph showing induction of apoptosis by hyaluronan oligomers under anchorage-independent conditions. TA3/St murine mammary carcinoma cells were grown in suspension in serum-free medium for 24 hours in the presence of 50 or 150 μg/ml hyaluronan oligomers (o-HA), 150 μg/ml of ˜80 kDa molecular weight hyaluronan polymer (HA-80), 150 μg/ml chitin oligomers, 150 μg/ml chondroitin sulfate (CS), or 50 nM wortmannin (WM), a specific inhibitor of mammalian PI3 kinase (phosphoinositide 3-kinase). Apoptotic cells were then analyzed and counted as described in the EXAMPLES section. Results represent the average of two experiments and are expressed as percentage of total cells±range.
(§1) Treatment of tumor cells and preparation of cell lysates for biochemical assays. TA3/St and HCT116 cells were grown for 72 hours in 14 cm culture dishes, then harvested by trypsinization, washed in PBS and suspended in DMEM containing 10% FBS. Two million cells from these cultures were added to each well of non-adherent, Ultra-low cluster plates and incubated in suspension at 37° C. for a further 72 hours. […]
Apoptosis assay. […] Viable cells (green) and apoptotic cells containing fragmented nuclei (red) were counted and the percentage of apoptotic cells was then calculated.

[3] = system: PTEN in TA3/St cells; test: PTEN expression, immunoblotting; assay type: cell-based, mouse; settings: similar amounts (150 μg/ml) of controls
Method: FIG. 8A is a bar graph showing stimulation of expression of PTEN, a tumor suppressor, by HA-oligomers, in TA3/St murine mammary carcinoma cells. Cells were treated in suspension and then processed for immunoblotting of PTEN. The bars represent densitometric quantification of immunoblots after treatment with 10-150 μg/ml hyaluronan oligomers (o-HA) or 150 μg/ml chondroitin sulfate (CS). Results are presented as means of three independent experiments and expressed as percent untreated±S.D.
FIG. 8C is an immunoblot using TA3/St murine mammary carcinoma cells treated as in lanes: 1. untreated; 2. 150 μg/ml chondroitin sulfate; 3. 150 μg/ml chitin oligomers; 4. 150 μg/ml hyaluronan polymer (mol. wt. ˜80 kDa); 5. 50 μg/ml hyaluronan oligomers; 6. 150 μg/ml hyaluronan oligomers. Results are representative of three experiments. Similar results to FIG. 8C were obtained also with HCT116 cells.
PTEN levels in TA3/St mouse mammary carcinoma cells were measured by Western blotting; values were obtained by scanning the blots. HA oligomers (oligo) at 50-100 μg/ml caused ˜6-fold increase in PTEN levels compared to untreated control. […]
(§2) Immunoblotting. […] Immunoreactive bands were detected by enhanced chemiluminescence and the sizes of proteins were estimated using prestained molecular weight standards. Immunoreactive bands were quantified by densitometry. […]

[4] = system: α-isoform of PI3 kinase in TA3/St cells; test: PI3 kinase α isoform assay (immunoprecipitated); assay type: cell-based, mouse; settings: 150 μg/ml polysaccharide controls, 50 nM wortmannin
Method: as §3, §4

[5] = system: caspase-3 activity in TA3/St murine mammary carcinoma cells; test: Caspase-3 assay; assay type: cell-based, mouse; settings: 150 μg/ml
Method: FIG. 4A is a bar graph showing stimulation of caspase-3 activity in TA3/St murine mammary carcinoma cells by hyaluronan oligomers. Cells were grown in suspension in serum-free medium for 24 hours in the presence of 10, 50 or 150 μg/ml hyaluronan oligomers (o-HA), 150 μg/ml chondroitin sulfate (CS), or 20 μM LY294002 (LY), a specific inhibitor of mammalian PI3 kinase, and then analyzed for caspase-3 activity. Results are presented as the mean of specific activity (absorbance at 405 nm/mg/90 min)±S.D. for three independent experiments.
as §1, with “hours. The cells from each well were then collected, washed in PBS, suspended in 5 ml DMEM medium containing 2% bovine serum albumin (Cohn Analog, Sigma), re-plated in the cluster plates, and incubated in suspension at 37° C. for 96 hours; similar results were obtained with pre-incubations of 24-96 hours for most measurements. The hyaluronan oligomers or other reagents were then added and the cells incubated for another 24 hours in suspension.” for “hours.”

[6] = system: phosphorylated Akt in TA3/St cells; test: Akt phosphorylation, Western blotting; assay type: cell-based, mouse; settings: 150 μg/ml controls, 1:50 antibody to CD44 (FIG. 6C)
Method: FIG. 6A is a bar graph showing inhibition of Akt phosphorylation by hyaluronan oligomers in TA3/St murine mammary carcinoma cells treated in suspension with 1-150 μg/ml hyaluronan oligomers (o-HA) or 150 μg/mlchondroitin sulfate (CS). Cell lysates were then analyzed by Western blotting for phosphorylated Akt and quantified by densitometry. Results in A and B are presented as means of three independent experiments and expressed as percent untreated±S.D.
FIG. 6C is a representation of a Western blot of phosphorylated Akt from TA3/St cells: 1. untreated; 2. 150 μg/ml chondroitin sulfate; 3. 150 μg/ml hyaluronan polymer (mol. wt. ˜80 kDa); 4. 150 μg/ml chitin oligomers; 5. 50 μg/ml hyaluronan oligomers; 6. 150 μg/ml hyaluronan oligomers; 7. 50 nM wortmannin; 8. 20 μM LY294002; 9. 1:50 dilution of antibody against CD44. Results are representative of three experiments. Similar results to those in FIG. 6C were obtained also with HCT116 cells.
Treatment of tumor cells and preparation of cell lysates for biochemical assays. TA3/St and HCT116 cells were grown for 72 hours in 14 cm culture dishes, then harvested by trypsinization, washed in PBS and suspended in DMEM containing 10% FBS. […]
as §2

[7] = system: caspase-3 activity in HCT116 human colon carcinoma cells; test: Caspase-3 assay; assay type: cell-based; settings: HCT116, 150 μg/ml
Method: Treatment of tumor cells and preparation of cell lysates for biochemical assays. TA3/St and HCT116 cells were grown for 72 hours in 14 cm culture dishes, then harvested by trypsinization, washed in PBS and suspended in DMEM containing 10% FBS. Two million cells from these cultures were added to each well of non-adherent, Ultra-low cluster plates and incubated in suspension at 37° C. for a further 72 hours. The cells from each well were then collected, washed in PBS, suspended in 5 ml DMEM medium containing 2% bovine serum albumin (Cohn Analog, Sigma), re-plated in the cluster plates, and incubated in suspension at 37° C. for 96 hours; similar results were obtained with pre-incubations of 24-96 hours for most measurements. The hyaluronan oligomers or other reagents were then added and the cells incubated for another 24 hours in suspension.
The cells treated as above were harvested by centrifugation at room temperature. The pellets were washed twice in PBS, then lysed in buffer containing 1% Nonidet P-40 and protease inhibitors. Cell lysis was achieved by vortexing for three cycles of 15 sec at high speed followed by cooling on ice. The lysate was centrifuged at 12,000×g for 15 min at 4° C. in an Eppendorf 5415R centrifuge. After measuring the protein content of the supernatant, it was flash-frozen in liquid nitrogen and stored at −80° C. until use in the assays below.
Caspase-3 assay. […]

[8] = system: MCF-7/Adr drug-resistant human mammary carcinoma cells; test: Drug resistance, viable cell number (Coulter Counter); assay type: cell-based; settings: MCF-7/Adr; decoys introduced by adenovirus infection, or siRNA (FIG. 18)
Method: FIG. 15A is a line graph showing that MCF-7/Adr drug-resistant human mammary carcinoma cells grown in culture with hyaluronan oligomers are sensitized to doxorubicin. MCF-7/Adr cells were obtained from MCF-7 cells by being selected for drug resistance by exposure to doxorubicin. Cells were grown for 24 h in 24-well plates in RPMI 1640 medium containing Glutamex 1 plus 10% fetal bovine serum at 37° in 5% CO2. Various concentrations of doxorubicin (doxo) were then added and the cells incubated for another 72 h, followed by a further 24 h in the presence or absence of 100 μg/ml hyaluronan oligomers (o-HA). The oligomers were a mixed population of 3-8 repeating disaccharides in length. The cells were then harvested and the number of viable cells was determined in a Coulter Counter.
FIG. 18 is a set of line graphs showing a resulting cell number, on the ordinate, following drug treatment with doxorubicin, concentration (log) in nM on the abscissa, showing restoration of drug sensitivity (inhibition of drug resistance) by HA oligomers, soluble hyaluronan-binding decoys, and CD44 siRNA, using derivatives of MCF-7 cells as in FIG. 17 above.
Therefore, the effect of co-treatment with hyaluronan oligomers on drug resistance was examined in an established system, i.e. MCF-7/Adr human mammary carcinoma cells that have been selected for resistance to doxorubicin (Fairchild, C. R., et al., Cancer Res 47, 5141-8, 1987). First, the effect of hyaluronan oligomers on resistance to doxorubicin in the MCF-7/Adr cells versus the relatively drug-sensitive, parental MCF-7 cell line was compared.

[9] = system: TA3/St murine mammary carcinoma cells; settings: soft agar; TA3/St transfectant clones over-expressing the protein; cited from earlier work
[10] = system: TA3/St murine mammary carcinoma cells; test: Proliferation in monolayer (anchorage-dependent) culture; assay type: cell-based, mouse; settings: 100-150 μg/ml

Substance	effect on PI3 kinase-α activity [1]	effect on apoptosis [2]	effect on PTEN levels [3]	effect on PTEN levels ([3]; listed as Chondroitin sulfate (CS))	effect on PI3 kinase-α activity ([4]; 20 μM LY294002, 1:50 antibody to CD44)	effect on PI3 kinase-α activity ([4]; 20 μM LY294002, 1:50 antibody to CD44, listed as chondroitin sulfate (CS))	effect on caspase-3 activity [5]	effect on phosphorylation of Akt [6]	effect on caspase-3 activity [7]	reversal of doxorubicin resistance [8]	inhibition of anchorage-independent growth [9]	effect on proliferation [10]
chondroitin sulfate	Neither hyaluronan polymer, nor chondroitin sulfate, nor chitin oligomers had a significant effect	do not have significant effects	do not stimulate PTEN levels	did not increase PTEN levels	Neither hyaluronan polymer, nor chondroitin sulfate, nor chitin oligomers had a significant effect	had no effect	no significant effect	not caused	no significant effect	–	–	–
soluble CD44: hyaluronan-binding decoy, over-expressed in cells by transfection or adenovirus	–	–	–	–	–	–	–	–	–	reversed	effective inhibitor	Neither HA oligomers nor soluble CD44 significantly affect proliferation
